Read-outs that look alike come from different tables or passages of the source.
Target: CB1 (mutant) (Homo sapiens, UniProt P21554)
Test: R-SAT functional receptor assay, CB1 (mutant, truncated after amino acid 417)
Type: cell-based
Details: R-SAT CB1; for Emax / % Inhibition: receptor form not stated, relative to SR141716 (100%); for Emax: read-out: % Inhibition
[1] = pIC50, Appendix A, receptor form (mutant or wild-type) not stated
[2] = Appendix A, receptor form (mutant or wild-type) not stated, read-out: pIC50 (converted)

CB1 (mutant), sequence (P21554 1-417, change not shown): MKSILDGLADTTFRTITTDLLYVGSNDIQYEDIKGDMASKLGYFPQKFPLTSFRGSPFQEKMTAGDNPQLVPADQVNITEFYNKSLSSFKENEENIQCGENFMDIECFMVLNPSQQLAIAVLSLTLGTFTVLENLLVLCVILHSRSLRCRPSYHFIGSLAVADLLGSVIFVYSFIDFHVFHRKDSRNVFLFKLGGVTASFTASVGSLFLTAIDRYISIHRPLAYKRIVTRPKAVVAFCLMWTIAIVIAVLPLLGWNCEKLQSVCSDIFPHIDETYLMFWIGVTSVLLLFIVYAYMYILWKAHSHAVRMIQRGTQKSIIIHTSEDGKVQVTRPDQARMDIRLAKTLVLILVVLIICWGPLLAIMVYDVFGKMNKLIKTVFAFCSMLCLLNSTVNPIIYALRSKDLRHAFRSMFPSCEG

Compound	Emax (Appendix A) [%]	IC50 [2] [nM]	other results
O=C(NN1CCCCC1)c1ccc2c(c1)N=C(C1CCCCC1)c1ccccc1C2	87	–	–
CON(C)C(=O)c1ccc2c(c1)N=C(c1ccc(Cl)c(Cl)c1)c1ccccc1S2	0	–	–
CCCC1=Nc2cc(C(=O)NCc3ccccc3OC)ccc2Sc2ccccc21	91	–	IC50 [1]: 63.1 nM
CCCCN(C)C(=O)c1ccc2c(c1)N=C(c1cccc(Cl)c1)c1ccccc1S2	82	–	IC50 [1]: 79.4 nM
O=C(NN1CCCCC1)c1ccc2c(c1)N=C(c1ccccc1F)c1ccccc1S2	104	–	IC50 [1]: 100 nM
CC(C)CNC(=O)c1ccc2c(c1)N=C(c1ccccc1Cl)c1ccccc1S2	86	–	–
O=C(NN1CCCC1)c1ccc2c(c1)N=C(c1cccc(Cl)c1)c1ccccc1S2	85	–	–
CCCCNC(=O)c1ccc2c(c1)N=C(c1ncccc1C)c1ccccc1S2	85	–	–
O=C(c1ccc2c(c1)N=C(C1CCCCC1)c1ccccc1S2)N1CCCCC1	26	–	–
CC(C)NC(=O)c1ccc2c(c1)N=C(c1ccc(Br)cc1)c1ccccc1S2	83	–	–
O=C(NN1CCCC1)c1ccc2c(c1)N=C(c1cccc(F)c1)c1ccccc1S2	67	–	–
Cc1cccnc1C1=Nc2cc(C(=O)NCC(C)C)ccc2Sc2ccccc21	87	–	–
CCCCN(C)C(=O)c1ccc2c(c1)N=C(c1ccc(Cl)cc1F)c1ccccc1S2	84	–	–
COc1ccccc1C1=Nc2cc(C(=O)NCCC(C)C)ccc2Sc2ccccc21	91	–	–
CCCCNC(=O)c1ccc2c(c1)N=C(c1ccccc1Cl)c1ccccc1S2	89	–	–
O=C(NCc1ccncc1)c1ccc2c(c1)N=C(c1ccccc1F)c1ccccc1S2	94	–	–
O=C(NCc1ccco1)c1ccc2c(c1)N=C(c1ccccc1Cl)c1ccccc1S2	95	–	–
O=C(NCc1cccnc1)c1ccc2c(c1)N=C(c1ccccc1Cl)c1ccccc1S2	72	–	–
O=C(NCc1ccc(F)cc1)c1ccc2c(c1)N=C(c1ccc(F)cc1)c1ccccc1N2	61	–	–
O=C(NN1CCCCCC1)c1ccc2c(c1)N=C(c1sccc1Cl)c1ccccc1S2	82	–	IC50 [1]: 20 nM

Compound	Emax (Appendix A) [%]	IC50 [2] [nM]	other results
CCOCCNC(=O)c1ccc2c(c1)N=C(NCc1ccc(Cl)cc1)c1ccccc1S2	1	–	–
CCCC1=Nc2cc(C(=O)NCc3ccc(OC)cc3)ccc2Sc2ccccc21	96	–	IC50 [1]: 25.1 nM
O=C(c1ccc2c(c1)N=C(c1ccc(Cl)cc1)c1ccccc1S2)N1CCCCC1	95	–	IC50 [1]: 31.6 nM
CCCC1=Nc2cc(C(=O)NCCCN3CCCCC3CC)ccc2Sc2ccccc21 (stereo not shown)	128	–	–
CCCCN(C)C(=O)c1ccc2c(c1)N=C(c1ccccc1Cl)c1ccccc1S2	40	–	–
O=C(NC1CCCC1)c1ccc2c(c1)N=C(c1ccc(Cl)cc1Cl)c1ccccc1S2	52	–	–
CC(C)NC(=O)c1ccc2c(c1)N=C(c1ccc(Cl)cc1Cl)c1ccccc1S2	45	–	–
CCCC1=Nc2cc(C(=O)NCCN3CCOCC3)ccc2Sc2ccccc21	98	–	–
CCCC1=Nc2cc(C(=O)N3CCN(Cc4ccc5c(c4)OCO5)CC3)ccc2Sc2ccccc21	96	–	–
CCCC1=Nc2cc(C(=O)NCCCN3CCC(Cc4ccccc4)CC3)ccc2Sc2ccccc21	115	–	–
O=C(NN1CCCCC1)c1ccc2c(c1)N=C(N1CCOCC1)c1ccccc1S2	76	–	–
O=C(NCCCC(F)(F)F)c1ccc2c(c1)N=C(c1cccc(F)c1)c1ccccc1S2 [drawing 547]	100	1	–
O=C(NCc1ccccc1Br)c1ccc2c(c1)N=C(C1CCCCC1)c1ccccc1S2 [drawing 548]	85	39.8	–
O=C(NCCC(F)(F)F)c1ccc2c(c1)N=C(c1cccc(Cl)c1)c1ccccc1S2 [drawing 549]	96	1.58	–
CC(C)NC(=O)c1ccc2c(c1)N=C(c1ccc(Cl)s1)c1ccccc1S2 [drawing 550]	78	39.8	–
CC(C)CNC(=O)c1ccc2c(c1)N=C(c1ccc(Cl)s1)c1ccccc1S2 [drawing 551]	–	–	pIC50 (Appendix A, receptor form (mutant or wild-type) not stated): 8.7
CCCCNC(=O)c1cc2c(cc1O)Sc1ccccc1C(c1ccc(Cl)cc1)=N2 [drawing 552]	95	50.1	–
O=C(NCc1cccs1)c1ccc2c(c1)N=C(c1ccc(Cl)s1)c1ccccc1S2 [drawing 553]	114	2	–
COc1cccc(C2=Nc3cc(C(=O)NCc4ccc(C)o4)ccc3Sc3ccccc32)n1 [drawing 554]	84	50.1	–
O=C(NCCCC(F)(F)F)c1ccc2c(c1)N=C(c1ccsc1)c1ccccc1S2 [drawing 555]	90	2	–

Compound	Emax (Appendix A) [%]	IC50 [2] [nM]	other results
CCCCNC(=O)c1ccc2c(c1)N=C(c1ccc(Cl)cc1)c1cc(Cl)ccc1S2 [drawing 556]	112	50.1	–
Cc1csc(CNC(=O)c2ccc3c(c2)N=C(c2cccc(F)c2)c2ccccc2S3)c1 [drawing 557]	96	2.51	–
CC(C)CNC(=O)c1ccc2c(c1)N=C(c1ccc(Cl)cn1)c1ccc(F)cc1S2 [drawing 558]	123	50.1	–
O=C(NCCCC(F)(F)F)c1ccc2c(c1)N=C(c1ccc(Cl)s1)c1ccccc1S2 [drawing 559]	103	2.51	–
CCCCNC(=O)c1ccc2c(c1)N=C(c1ccc(Cl)cn1)c1cc(F)ccc1S2 [drawing 560]	100	50.1	–
Cc1csc(CNC(=O)c2ccc3c(c2)N=C(c2cccc(C)n2)c2ccccc2S3)c1 [drawing 561]	85	2.51	–
O=C(NCCc1ccccn1)c1ccc2c(c1)N=C(c1ccc(Cl)cc1F)c1ccccc1S2 [drawing 562]	96	50.1	–
Cc1csc(CNC(=O)c2ccc3c(c2)N=C(c2ccsc2)c2ccccc2S3)c1 [drawing 563]	93	2.51	–
O=C(NC1CCC(F)(F)CC1)c1ccc2c(c1)N=C(c1ccccn1)c1ccccc1S2 [drawing 564]	79	50.1	–
CC(C)CNC(=O)c1ccc2c(c1)N=C(c1cccc(Cl)c1)c1ccccc1S2 [drawing 565]	–	–	% Inhibition (Appendix A): 105%
CC(C)CCNC(=O)c1ccc2c(c1)N=C(c1cccc(Cl)c1)c1ccccc1S2 [drawing 567]	115	2.51	–
O=C(NCc1ccc(Cl)cc1Cl)c1ccc2c(c1)N=C(c1ccccc1F)c1ccccc1S2 [drawing 568]	85	50.1	–
O=C(NCCc1ccc(Cl)cc1)c1ccc2c(c1)N=C(c1cccc(Cl)c1)c1ccccc1S2 [drawing 569]	106	2.51	–
CCCC1=Nc2cc(C(=O)NCCc3ccc(OC)cc3OC)ccc2Sc2ccccc21 [drawing 570]	101	50.1	–
O=C(NCc1cccs1)c1ccc2c(c1)N=C(c1ccc(F)cc1)c1ccccc1S2 [drawing 571]	97	2.51	–
Cc1ccsc1C1=Nc2cc(C(=O)NC3CCCCC3)ccc2Sc2ccccc21 [drawing 572]	88	50.1	–
O=C(NCc1cccs1)c1ccc2c(c1)N=C(c1cccc(Cl)c1)c1ccccc1S2 [drawing 573]	108	2.51	–
CCCCNC(=O)c1ccc2c(c1)N=C(c1ccc(Cl)s1)c1ccccc1S2 [drawing 575]	–	3.16	% Inhibition (Appendix A): 97%
CC(C)NC(=O)c1ccc2c(c1)N=C(c1ccc(Cl)cc1)c1ccccc1S2 [drawing 576]	98	50.1	–
